Laboratory results taken from patent US10543212B2, “Substituted amines for treating cardiac diseases” (Cardurion Pharmaceuticals, LLC, priority 2017, dated 2020).

Target: T1, Full-length, GST-tagged, human CaMKIIδ (Homo sapiens, UniProt Q13557)
T1 construct: Full-Length, Glutathione-S-Transferase(GST)-Tagged, Human CaMKIIδ was purchased from Carna Biosciences; purchased Carna Biosciences 02-111
Experiment: CaMKIIδ binding assay (TR-FRET with BODIPY-labeled probe ligand)
How it was run: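 TR-FRET probe-displacement binding: 0.5 nM GST-CaMKIIδ with 10 μg/mL calmodulin, 1 mM CaCl2, 0.21 nM Tb-anti-GST Ab and 300 nM BODIPY probe in HEPES pH 7.6 buffer. Eight-point 4-fold dilutions, 1 hr at room temperature. IC50 from logistic fit; 100% inhibition defined by 3 μM parent compound.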

[1] = CaMKIIδ binding assay, activity class per Table 2
[2] = CaMKIIδ binding assay, results of Table 2
[3] = Table 2, CaMKIIδ binding assay, activity given as class A/B/C
[4] = Table 2, activity class for CaMKIIδ

T1 sequence (Q13557 1-478 isoform Q13557-12): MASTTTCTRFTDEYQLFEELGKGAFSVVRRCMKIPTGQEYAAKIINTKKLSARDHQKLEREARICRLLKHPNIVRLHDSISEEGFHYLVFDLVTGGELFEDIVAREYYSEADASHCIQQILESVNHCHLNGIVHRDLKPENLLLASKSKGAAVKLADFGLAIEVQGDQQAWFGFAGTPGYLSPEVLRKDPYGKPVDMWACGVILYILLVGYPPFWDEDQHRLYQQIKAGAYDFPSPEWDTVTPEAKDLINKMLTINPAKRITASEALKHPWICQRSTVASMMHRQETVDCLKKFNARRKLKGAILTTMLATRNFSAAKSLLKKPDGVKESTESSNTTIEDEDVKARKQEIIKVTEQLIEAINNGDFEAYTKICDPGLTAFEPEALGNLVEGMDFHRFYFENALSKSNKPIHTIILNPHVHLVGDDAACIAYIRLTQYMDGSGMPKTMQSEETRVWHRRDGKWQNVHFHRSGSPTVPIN

Compound | IC50 [2] | further results
C[C@@H](Cn1cnnn1)Oc1cc(-c2cnc(Nc3cn(C4CC5(C4)CN(C4COCCOC4)C5)nc3OCC(F)(F)F)nc2)ccc1Cl [Example 982, (S)—N-(1-(2-(1,4-dioxepan-6-yl)-2-azaspiro[3.3]heptan-6-yl)-3-(2,2,2-trifluoroethoxy)-1H-pyrazol-4-yl)-5-(3-((1-(1H-tetrazol-1-yl)propan-2-yl)oxy)-4-chlorophenyl)pyrimidin-2-amine] | – | IC50 [1]: < 10 nM
COc1cc2c(cc1Nc1ncc(-c3ccc(Cl)c(O[C@@H](C)Cn4cnnn4)c3)cn1)CCN(C1COC1)CC2 [Example 447, (S)-N-(5-(3-((1-(1H-tetrazol-1-yl)propan-2-yl)oxy)-4-chlorophenyl)pyrimidin-2-yl)-8-methoxy-3-(oxetan-3-yl)-2,3,4,5-tetrahydro-1H-benzo[d]azepin-7-amine] | < 10 nM | –
C[C@@H](Cn1cnnn1)Oc1cc(-c2cnc(Nc3cc(N4CCC(N5CCOCC5)CC4)cnc3OCC(F)(F)F)nc2)ccc1Cl [Example 581, (S)-5-(3-((1-(1H-tetrazol-1-yl)propan-2-yl)oxy)-4-chlorophenyl)-N-(5-(4-morpholinopiperidin-1-yl)-2-(2,2,2-trifluoroethoxy)pyridin-3-yl)pyrimidin-2-amine] | < 10 nM | –
C[C@@H](Cn1cnnn1)Oc1cc(-c2cnc(Nc3cn(C4CC5(C4)CN(C4COC4)C5)nc3OCC(F)(F)F)nc2)ccc1Cl [Example 854, (S)-5-(3-((1-(1H-tetrazol-1-yl)propan-2-yl)oxy)-4-chlorophenyl)-N-(1-(2-(oxetan-3-yl)-2-azaspiro[3.3]heptan-6-yl)-3-(2,2,2-trifluoroethoxy)-1H-pyrazol-4-yl)pyrimidin-2-amine] | – | IC50 [3]: < 10 nM
COc1cc2c(cc1Nc1ncc(-c3ccc(Cl)c(O[C@@H](C)Cn4cnnn4)c3)cn1)N(C(=O)CN(C)C)CC2 [Example 497, (S)-1-(6-((5-(3-((1-(1H-tetrazol-1-yl)propan-2-yl)oxy)-4-chlorophenyl)pyrimidin-2-yl)amino)-5-methoxyindolin-1-yl)-2-(dimethylamino)ethan-1-one] | < 10 nM | –
COc1cc(C2=CCN(C3COC3)CC2)c(C)cc1Nc1ncc(-c2ccc(Cl)c(O[C@@H](C)Cn3cnnn3)c2)cn1 [Example 531, (S)-5-(3-((1-(1H-tetrazol-1-yl)propan-2-yl)oxy)-4-chlorophenyl)-N-(2-methoxy-5-methyl-4-(1-(oxetan-3-yl)-1,2,3,6-tetrahydropyridin-4-yl)phenyl)pyrimidin-2-amine] | 10 to 100 nM | –
C[C@@H](Cn1cnnn1)Oc1cc(-c2cnc(Nc3ccc4c(c3)N(C(=O)C3CCN(C)CC3)CC4)nc2)ccc1Cl [Example 435, (S)-(6-((5-(3-((1-(1H-tetrazol-1-yl)propan-2-yl)oxy)-4-chlorophenyl)pyrimidin-2-yl)amino)indolin-1-yl) (1-methylpiperidin-4-yl)methanone] | < 10 nM | –
CC(Cn1cnnn1)Oc1cc(-c2cnc(Nc3cn(C4CCC(O)(CN5CCOCC5)CC4)nc3C(F)(F)F)nc2)ccc1Cl [Example 918, trans-4-(4-((5-(3-(((S)-1-(1H-tetrazol-1-yl)propan-2-yl)oxy)-4-chlorophenyl)pyrimidin-2-yl)amino)-3-(trifluoromethyl)-1H-pyrazol-1-yl)-1-(morpholinomethyl)cyclohexan-1-ol] | – | IC50 [1]: < 10 nM
C[C@@H](Cn1cnnn1)Oc1cc(-c2cnc(Nc3cn(C4CC5(CNC5)C4)nc3C(F)(F)F)nc2)ccc1Cl [Example 920, (S)-5-(3-((1-(1H-tetrazol-1-yl)propan-2-yl)oxy)-4-chlorophenyl)-N-(1-(2-azaspiro[3.3]heptan-6-yl)-3-(trifluoromethyl)-1H-pyrazol-4-yl)pyrimidin-2-amine] | – | IC50 [1]: < 10 nM
COCCN1CCc2cc(Nc3ncc(-c4ccc(Cl)c(O[C@@H](C)Cn5cnnn5)c4)cn3)c(OC)cc2C1 [Example 492, (S)-N-(5-(3-((1-(1H-tetrazol-1-yl)propan-2-yl)oxy)-4-chlorophenyl)pyrimidin-2-yl)-7-methoxy-2-(2-methoxyethyl)-1,2,3,4-tetrahydroisoquinolin-6-amine] | < 10 nM | –
C[C@H](Cn1cnnn1)Oc1cc(-c2cnc(Nc3cn([C@H]4CC[C@@H](N5CCOCC5)CC4)nc3C(F)(F)F)nc2)ccc1Cl [Example 896, 5-(3-(((R)-1-(1H-tetrazol-1-yl)propan-2-yl)oxy)-4-chlorophenyl)-N-(1-(cis-4-morpholinocyclohexyl)-3-(trifluoromethyl)-1H-pyrazol-4-yl)pyrimidin-2-amine] | – | IC50 [1]: ≥ 100 nM
COc1cc(C2CCCN(C3COC3)C2)ccc1Nc1ncc(-c2ccc(C#N)c(O[C@@H](C)Cn3cnnn3)c2)cn1 (stereo partly drawn) [Example 493, 2-(((S)-1-(1H-tetrazol-1-yl)propan-2-yl)oxy)-4-(2-((2-methoxy-4-(1-(oxetan-3-yl)piperidin-3-yl)phenyl)amino)pyrimidin-5-yl)benzonitrile] | < 10 nM | –
C[C@@H](Cn1cnnn1)Oc1cc(-c2cnc(Nc3cn(C4CCNCC4)nc3OCC(F)(F)F)nc2)ccc1Cl [Example 676, (S)-5-(3-((1-(1H-tetrazol-1-yl)propan-2-yl)oxy)-4-chlorophenyl)-N-(1-(piperidin-4-yl)-3-(2,2,2-trifluoroethoxy)-1H-pyrazol-4-yl)pyrimidin-2-amine] | – | IC50 [4]: < 10 nM
COCC(=O)N1CCc2cc(Nc3ncc(-c4ccc(Cl)c(O[C@@H](C)Cn5cnnn5)c4)cn3)c(OC)cc2C1 [Example 469, (S)-1-(6-((5-(3-((1-(1H-tetrazol-1-yl)propan-2-yl)oxy)-4-chlorophenyl)pyrimidin-2-yl)amino)-7-methoxy-3,4-dihydroisoquinolin-2(1H)-yl)-2-methoxyethan-1-one] | 10 to 100 nM | –
C[C@@H](Cn1cnnn1)Oc1cc(-c2cnc(Nc3cn(C4CCN(C5CCOCC5)CC4)nc3C(F)(F)F)nc2)ccc1Cl [Example 706, (S)-5-(3-((1-(1H-tetrazol-1-yl)propan-2-yl)oxy)-4-chlorophenyl)-N-(1-(1-(tetrahydro-2H-pyran-4-yl)piperidin-4-yl)-3-(trifluoromethyl)-1H-pyrazol-4-yl)pyrimidin-2-amine] | – | IC50 [4]: < 10 nM
COc1cc2c(cc1Nc1ncc(-c3ccc(Cl)c(O[C@@H](C)Cn4cnnn4)c3)cn1)NCC2 [Example 477, (S)-N-(5-(3-((1-(1H-tetrazol-1-yl)propan-2-yl)oxy)-4-chlorophenyl)pyrimidin-2-yl)-5-methoxyindolin-6-amine] | 10 to 100 nM | –
COc1cc(N2CCOC(CN(C)C)C2)ccc1Nc1ncc(-c2ccc(Cl)c(O[C@@H](C)Cn3cnnn3)c2)cn1 (stereo partly drawn) [Example 688, 5-(3-(((S)-1-(1H-tetrazol-1-yl)propan-2-yl)oxy)-4-chlorophenyl)-N-(4-(2-((dimethylamino)methyl)morpholino)-2-methoxyphenyl)pyrimidin-2-amine] | – | IC50 [4]: < 10 nM
COc1nc(N2CCN(C3CC3)CC2)ccc1Nc1ncc(-c2ccc(Cl)c(O[C@@H](C)Cn3cnnn3)c2)cn1 [Example 671, (S)-5-(3-((1-(1H-tetrazol-1-yl)propan-2-yl)oxy)-4-chlorophenyl)-N-(6-(4-cyclopropylpiperazin-1-yl)-2-methoxypyridin-3-yl)pyrimidin-2-amine] | – | IC50 [4]: < 10 nM
Cc1ccc(N2CCC(N3CCOCC3)CC2)cc1Nc1ncc(-c2ccc(Cl)c(O[C@@H](C)Cn3cnnn3)c2)cn1 [Example 491] | < 10 nM | –
C[C@@H](Cn1cnnn1)Oc1cc(-c2cnc(Nc3ccc(N4CCC(N5CCOCC5)CC4)cc3C(N)=O)nc2)ccc1Cl [Example 444, (S)-2-((5-(3-((1-(1H-tetrazol-1-yl)propan-2-yl)oxy)-4-chlorophenyl)pyrimidin-2-yl)amino)-5-(4-morpholinopiperidin-1-yl)benzamide] | ≥ 100 nM | –
COc1cc(N2CCN(C3CCOCC3)CC2)ncc1Nc1ncc(-c2ccc(Cl)c(O[C@@H](C)Cn3cnnn3)c2)cn1 [Example 650, (S)-5-(3-((1-(1H-tetrazol-1-yl)propan-2-yl)oxy)-4-chlorophenyl)-N-(4-methoxy-6-(4-(tetrahydro-2H-pyran-4-yl)piperazin-1-yl)pyridin-3-yl)pyrimidin-2-amine] | – | IC50 [4]: < 10 nM
C[C@@H](Cn1cnnn1)Oc1cc(-c2cnc(Nc3cn(CC4(O)CCN(C(N)=O)CC4)nc3C(F)(F)F)nc2)ccc1Cl [Example 888, (S)-4-((4-((5-(3-((1-(1H-tetrazol-1-yl)propan-2-yl)oxy)-4-chlorophenyl)pyrimidin-2-yl)amino)-3-(trifluoromethyl)-1H-pyrazol-1-yl)methyl)-4-hydroxypiperidine-1-carboxamide] | – | IC50 [1]: < 10 nM
C[C@@H](Cn1cnnn1)Oc1cc(-c2cnc(Nc3cn(C4CCN(C5CCN(C6CC6)CC5)CC4)nc3C(F)(F)F)nc2)ccc1Cl [Example 558, (S)-5-(3-((1-(1H-tetrazol-1-yl)propan-2-yl)oxy)-4-chlorophenyl)-N-(1-(1′-cyclopropyl-[1,4′-bipiperidin]-4-yl)-3-(trifluoromethyl)-1H-pyrazol-4-yl)pyrimidin-2-amine] | < 10 nM | –
COc1cc2c(cc1Nc1ncc(-c3ccc(Cl)c(O[C@@H](C)Cn4cnnn4)c3)cn1)CN(C1COC1)CCO2 [Example 454, (S)-N-(5-(3-((1-(1H-tetrazol-1-yl)propan-2-yl)oxy)-4-chlorophenyl)pyrimidin-2-yl)-8-methoxy-4-(oxetan-3-yl)-2,3,4,5-tetrahydrobenzo[f][1,4]oxazepin-7-amine] | ≥ 100 nM | –
C[C@@H](Cn1cnnn1)Oc1cc(-c2cnc(Nc3cn([C@H]4CC[C@@H](N5CCOCC5)CC4)nc3OCC(F)F)nc2)ccc1Cl [Example 805, 5-(3-(((S)-1-(1H-tetrazol-1-yl)propan-2-yl)oxy)-4-chlorophenyl)-N-(3-(2,2-difluoroethoxy)-1-(cis-4-morpholinocyclohexyl)-1H-pyrazol-4-yl)pyrimidin-2-amine] | – | IC50 [3]: < 10 nM
